Measurements from patent US20240336566A1, “CRYSTALLINE FORMS OF A COMPOUND FOR THE TARGETED DEGRADATION OF THE ANDROGEN RECEPTOR” (Arvinas Operations, Inc., priority 2023, published 2024).
Where two headings read alike, the source gives them in different places.

Tests used:
[1] = Solvent solubility screen of Compound A (aliquot addition, HPLC of saturated solutions); format: physicochemical; set-up: key to XRPD: A: Amorphous; P1: Pattern 1; P2: Pattern 2; *Poorly crystalline; + p1: some pattern 1 peaks; conditions: for XRPD: solid from solubility screen; for solubility: thermodynamic from solid
Protocol: A known volume aliquot (typically 5 volumes) of solvent was added to approximately 5 mg of Compound A. See Table 14 for the selected solvents for the solvent solubility screen.
Between each addition, the mixture was checked for dissolution and where no dissolution was apparent, the mixture was heated to ca. 40° C. and checked again. This procedure was continued until dissolution was observed or until 100 volumes of solvent had been added.
Where dissolution was not observed, solids were isolated centrifugally and analyzed by XRPD. The saturated solutions were analyzed by HPLC to obtain the solubility.

[2] = Primary crystallization screen: XRPD before and after drying at 40° C.; format: physicochemical; set-up: key to XRPD Pattern Post-Thermal Cycling / XRPD Pattern Anti-Solvent Addition / XRPD Pattern Evaporation / XRPD Pattern Post-Thermal Cycling (dried): 1—Free base Pattern 1; 2—Free base Pattern 2; 3—Free base Pattern 3; 4—Free base Pattern 4; S—Potential Salt Pattern 1; A—Amorphous; C—Counterion present; *—Poorly crystalline; t—Results obtained from temperature cycling; e—Results obtained from evaporation
Protocol: • 34×40 mg of Compound A was weighed into vials before the selected solvents were added to prepare slurries, where possible. See Table 29 for a list of solvent systems used and the volume of solvent used. • Stirrer bars were added to the vials, before the vials were sealed and temperature cycled with stirring between 5° C. and 40° C. The heating rate was 0.1° C./min and the samples were held at 5° C. and 40° C. for 2 hours. • After temperature cycling for 4 days, observations were made (see Table 29). Slurries were centrifuge filtered and the solids were analyzed by XRPD • The solids were dried at 40° C. for approximately 18 h before being re-analyzed by XRPD. • Saturated solutions were then split into 3 vials for the following experiments • Evaporation at ambient temperature • Cooling (5° C.). • Where no solids were obtained after 72 hours, the samples were moved to the freezer at −20° C. for further cooling. • Where no solids were obtained from further cooling, the samples were allowed to evaporate at ambient temperature. • Anti-solvent addition at ambient temperature. • Where no solids were obtained after 72 hours the samples were moved to the freezer at −20° C. to encourage crystallization. • Where no solids were obtained from cooling, the samples were allowed to evaporate at ambient temperature.

[3] = Acetonitrile:Water (75:25% v/v)
[4] = Dichloromethane:Methanol (50:50% v/v)
[5] = Dichloromethane:Methanol (75:25% v/v)

COc1cc(O[C@H]2C(C)(C)[C@H](NC(=O)c3ccc(N4CCC(CN5CCN(c6ccc(C(=O)N[C@H]7CCC(=O)NC7=O)c(F)c6)CC5)CC4)cc3)C2(C)C)ccc1C#N [Compound A, 4-(4-((1-(4-(((1R,3R)-3-(4-cyano-3-methoxyphenoxy)-2,2,4,4-tetramethylcyclobutyl)carbamoyl)phenyl)piperidin-4-yl)methyl)piperazin-1-yl)-N—((S)-2,6-dioxopiperidin-3-yl)-2-fluorobenzamide]
XRPD ([1]; Ethanol): P1
XRPD ([1]; Ethyl acetate): P1
XRPD ([1]; Heptane): A
XRPD ([1]; Toluene): A
XRPD ([1]; Water): A
XRPD ([1]; tert-Butylmethyl ether): A
solubility ([1]; tert-Butylmethyl ether, organic solvent or mixture, tert-Butylmethyl ether, read-out: Approximate Solubility): 0.108 mg/mL
solubility ([1]; tetrahydrofuran, organic solvent or mixture, Tetrahydrofuran, read-out: Approximate Solubility): 50 mg/mL
solubility ([1]; tetrahydrofuran:water (98:2% v/v), organic solvent or mixture, Tetrahydrofuran:Water (98:2% v/v), read-out: Approximate Solubility): 50 mg/mL
solubility ([1]; tetrahydrofuran:water (98:2% v/v), organic solvent or mixture, Tetrahydrofuran:Water (98:2% v/v), read-out: Approximate solubility): ~50 mg/mL
solubility ([1]; toluene, organic solvent or mixture, Toluene, read-out: Approximate Solubility): 0.0298 mg/mL
solubility ([1]; water, Water, read-out: Approximate Solubility): 0.0005 mg/mL
XRPD Pattern Anti-Solvent Addition ([2]; 1,4-Dioxane): A
XRPD Pattern Cooling ([2]; 1,4-Dioxane): A e
XRPD Pattern Evaporation ([2]; 1,4-Dioxane): A x
XRPD Pattern Post-Thermal Cycling ([2]; 1,4-Dioxane): A
XRPD Pattern Post-Thermal Cycling (dried) ([2]; 1,4-Dioxane): A *
XRPD Pattern Evaporation ([2]; 1-Propanol): A
XRPD Pattern Evaporation ([2]; 2-Butanone (MEK)): 1
XRPD Pattern Evaporation ([2]; Acetone:Water (90:10% v/v)): 2
XRPD Pattern Anti-Solvent Addition ([2]; Acetonitrile): A x
XRPD Pattern Evaporation ([2]; Acetonitrile): A +
XRPD Pattern Post-Thermal Cycling ([2]; Acetonitrile): 1
XRPD Pattern Post-Thermal Cycling (dried) ([2]; Acetonitrile): 1
XRPD Pattern Evaporation [2, 3]: 6 (6—Free base Pattern 6)
XRPD Pattern Post-Thermal Cycling [2, 3]: 6 (6—Free base Pattern 6)
XRPD Pattern Post-Thermal Cycling (dried) [2, 3]: 6 (6—Free base Pattern 6)
XRPD Pattern Post-Thermal Cycling ([2]; Anisole): 5 (5—Free base Pattern 5)
XRPD Pattern Post-Thermal Cycling (dried) ([2]; Anisole): 8 (8—Free base Pattern 8)
XRPD Pattern Post-Thermal Cycling ([2]; Butyl acetate): 1
XRPD Pattern Post-Thermal Cycling (dried) ([2]; Butyl acetate): 1
XRPD Pattern Post-Thermal Cycling ([2]; Dichloromethane): 6 (6—Free base Pattern 6)
XRPD Pattern Post-Thermal Cycling (dried) ([2]; Dichloromethane): 6 (6—Free base Pattern 6)
XRPD Pattern Post-Thermal Cycling [2, 4]: 2
XRPD Pattern Post-Thermal Cycling (dried) [2, 4]: 2
XRPD Pattern Anti-Solvent Addition [2, 5]: A
XRPD Pattern Cooling [2, 5]: A e
XRPD Pattern Evaporation ([2]; Diethyl ether): A x
XRPD Pattern Evaporation ([2]; Ethanol): A x
XRPD Pattern Evaporation ([2]; Ethanol:Water (50:50% v/v)): A x
XRPD Pattern Post-Thermal Cycling ([2]; Ethyl acetate): 1
XRPD Pattern Post-Thermal Cycling (dried) ([2]; Ethyl acetate): 1
XRPD Pattern Evaporation ([2]; Isopropyl acetate): A x
XRPD Pattern Cooling ([2]; Methanol): A e
XRPD Pattern Evaporation ([2]; Methanol): A x
XRPD Pattern Evaporation ([2]; Methylisobutyl ketone): A x
XRPD Pattern Post-Thermal Cycling ([2]; Methylisobutyl ketone): 1
XRPD Pattern Post-Thermal Cycling (dried) ([2]; Methylisobutyl ketone): 1
XRPD Pattern Anti-Solvent Addition ([2]; N,N′-Dimethylacetamide): 1
XRPD Pattern Anti-Solvent Addition ([2]; N,N′-Dimethylformamide): 1
XRPD Pattern Cooling ([2]; N,N′-Dimethylformamide): A e
XRPD Pattern Evaporation ([2]; N,N′-Dimethylformamide): 1
XRPD Pattern Post-Thermal Cycling ([2]; Tetrahydrofuran): 1
XRPD Pattern Post-Thermal Cycling (dried) ([2]; Tetrahydrofuran): 1
XRPD Pattern Anti-Solvent Addition ([2]; Tetrahydrofuran:Water (98:2% v/v)): A
XRPD Pattern Post-Thermal Cycling ([2]; Toluene): 7 (7—Free base Pattern 7)
XRPD Pattern Post-Thermal Cycling (dried) ([2]; Toluene): 8 (8—Free base Pattern 8)
XRPD Pattern Post-Thermal Cycling ([2]; Water): A
XRPD Pattern Post-Thermal Cycling (dried) ([2]; Water): A
